Reference: ChEMBL document CHEMBL1201862, “PubChem BioAssay data set” (2004)
Active and inactive are the calls of the source.

How the values were obtained:
[1] = system: HeLa; assay: viability loss in HeLa cells – cell-based, ATP luminescence, cherry-pick samples, cytotoxicity control, dose response (AID 687004); assay type: functional; conditions: Homo sapiens
[2] = target: Protein S100-A4 (Homo sapiens, UniProt P26447); assay: human S100A4 peptide interaction inhibition curves – biochemical, fluorescence polarization, cherry-picked hits, dose response (AID 687001); assay type: functional
Chain of Protein S100-A4 (P26447 whole entry): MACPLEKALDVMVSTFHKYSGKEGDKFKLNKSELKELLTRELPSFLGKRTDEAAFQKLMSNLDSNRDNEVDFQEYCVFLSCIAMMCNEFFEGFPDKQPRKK

[3] = viability loss in HepG2 hepatoma cells – cell-based, cherry-picks, set 5, cytotoxicity control, dose response (AID 1053118); assay type: functional
[4] = target: T1, Rac GTPase-activating protein 1 (Homo sapiens, UniProt Q9H0H5); assay: blockers of MgcRacGAP-driven Rac1 GTP hydrolysis – biochemical, ADP Hunter fluorescence, primary and confirmatory, confirmation (AID 624330); assay type: functional
T1 sequence (Q9H0H5 whole entry): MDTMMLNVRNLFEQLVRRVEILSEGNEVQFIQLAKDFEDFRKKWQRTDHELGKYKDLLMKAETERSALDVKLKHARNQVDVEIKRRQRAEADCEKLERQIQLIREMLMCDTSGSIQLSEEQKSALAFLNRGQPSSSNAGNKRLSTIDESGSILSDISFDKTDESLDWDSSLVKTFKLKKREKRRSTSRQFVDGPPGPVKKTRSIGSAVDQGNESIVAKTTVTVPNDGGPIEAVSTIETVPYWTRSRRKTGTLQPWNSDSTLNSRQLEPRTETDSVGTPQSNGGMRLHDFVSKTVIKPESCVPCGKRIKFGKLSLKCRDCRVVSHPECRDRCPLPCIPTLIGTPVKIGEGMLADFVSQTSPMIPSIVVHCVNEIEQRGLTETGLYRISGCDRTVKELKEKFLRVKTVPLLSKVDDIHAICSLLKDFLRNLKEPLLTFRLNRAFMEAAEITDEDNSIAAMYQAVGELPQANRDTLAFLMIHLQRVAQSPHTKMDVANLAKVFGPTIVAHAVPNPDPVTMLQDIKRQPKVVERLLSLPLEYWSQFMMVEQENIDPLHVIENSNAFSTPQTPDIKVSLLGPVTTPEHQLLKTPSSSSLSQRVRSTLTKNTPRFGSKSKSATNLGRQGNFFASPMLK

[5] = viability loss in HeLa cells – cytotoxicity control for MgcRacGAP inhibitor project, dose response (AID 624300); assay type: functional
[6] = target: Nonstructural protein 1 (Influenza A virus, UniProt Q194T2); assay type: functional, Influenza A virus (A/California/07/2009(H1N1))
Chain of Nonstructural protein 1 (Q194T2 whole entry): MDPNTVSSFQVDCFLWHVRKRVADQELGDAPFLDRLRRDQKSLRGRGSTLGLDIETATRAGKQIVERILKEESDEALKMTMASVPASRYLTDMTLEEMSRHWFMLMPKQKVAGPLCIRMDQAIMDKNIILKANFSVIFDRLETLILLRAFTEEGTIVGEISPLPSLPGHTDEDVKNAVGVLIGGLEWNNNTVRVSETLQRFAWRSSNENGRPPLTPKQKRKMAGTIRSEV

[7] = target: T2, Beta-2 adrenergic receptor (Homo sapiens, UniProt P07550); assay: Dose response for HTS for Beta-2AR agonists via FAP method from Powderset3.; assay type: functional
T2 sequence (P07550 whole entry): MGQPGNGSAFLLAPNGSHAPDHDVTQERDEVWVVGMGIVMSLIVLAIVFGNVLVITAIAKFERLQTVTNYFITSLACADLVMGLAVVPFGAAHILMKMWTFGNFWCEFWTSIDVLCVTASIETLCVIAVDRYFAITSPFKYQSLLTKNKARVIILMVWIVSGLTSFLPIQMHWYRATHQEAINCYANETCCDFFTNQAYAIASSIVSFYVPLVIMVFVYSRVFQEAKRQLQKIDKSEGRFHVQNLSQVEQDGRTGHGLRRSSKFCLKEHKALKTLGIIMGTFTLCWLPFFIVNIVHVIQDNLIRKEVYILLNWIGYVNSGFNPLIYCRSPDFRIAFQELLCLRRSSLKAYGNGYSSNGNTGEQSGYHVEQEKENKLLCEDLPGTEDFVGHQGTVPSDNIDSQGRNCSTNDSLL

[8] = target: T2, Beta-2 adrenergic receptor; assay: ADRB2 activation measured by internalization – cell-based, FAP fluorogen, flow cytometry, cherry pick 1, dose response (AID 588763); assay type: functional
[9] = target: Fructose-bisphosphate aldolase (Mycobacterium tuberculosis, UniProt P9WQA3); assay: Fluorescence-based biochemical high throughput dose response assay for inhibitors of the fructose-bisphosphate aldolase (FBA) of M. tuberculosis.; assay type: functional
Chain of Fructose-bisphosphate aldolase (P9WQA3 whole entry): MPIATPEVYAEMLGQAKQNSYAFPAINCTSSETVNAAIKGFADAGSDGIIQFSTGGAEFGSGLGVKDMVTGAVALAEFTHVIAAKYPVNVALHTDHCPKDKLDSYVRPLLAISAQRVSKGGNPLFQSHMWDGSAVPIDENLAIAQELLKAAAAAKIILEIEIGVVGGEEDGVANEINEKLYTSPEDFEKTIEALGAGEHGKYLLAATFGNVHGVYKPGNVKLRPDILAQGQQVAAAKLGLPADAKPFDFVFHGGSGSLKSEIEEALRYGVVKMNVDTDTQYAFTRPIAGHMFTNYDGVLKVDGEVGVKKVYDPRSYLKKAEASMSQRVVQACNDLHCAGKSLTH

[10] = target: T3, Streptokinase A (Streptococcus pyogenes serotype M1, UniProt P10520); assay: viability-normalized secreted streptokinase activity reduction – plasminogen activation absorbance, OD405, dose response (AID 1914); assay type: functional, Streptococcus pyogenes M1 GAS;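 further: secreted streptokinase activity via plasminogen activation per viability signal from cell pellet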
T3 sequence (P10520 whole entry): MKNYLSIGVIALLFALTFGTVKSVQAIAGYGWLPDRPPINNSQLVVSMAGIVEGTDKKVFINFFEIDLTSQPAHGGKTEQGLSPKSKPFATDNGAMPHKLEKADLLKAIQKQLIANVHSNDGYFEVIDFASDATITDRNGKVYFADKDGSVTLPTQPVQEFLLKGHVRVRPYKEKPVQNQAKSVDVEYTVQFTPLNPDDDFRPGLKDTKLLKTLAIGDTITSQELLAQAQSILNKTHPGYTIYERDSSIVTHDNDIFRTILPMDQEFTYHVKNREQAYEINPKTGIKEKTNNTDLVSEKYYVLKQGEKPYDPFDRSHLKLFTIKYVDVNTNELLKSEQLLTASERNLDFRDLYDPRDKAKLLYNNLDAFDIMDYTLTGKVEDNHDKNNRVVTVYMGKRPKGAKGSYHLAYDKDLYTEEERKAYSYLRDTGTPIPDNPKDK

[11] = Counterscreen for AddAB inhibitors: absorbance-based bacterial cell-based high throughput dose response assay for inhibitors of bacterial viability. [Related pubchem assays (depositor defined):AID435030, AID449728, AID449731, AID488942, AID488955, AID488956]; assay type: functional
[12] = system: Streptococcus; assay: GAS UMAA2166 growth inhibition – luminescence, BacTiterGlo, counter-screen for streptokinase expression inhibitor project, dose response (AID 1915); assay type: functional, organism-based;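 further: potency for reduction of bacterial viability or growth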
[13] = system: Streptococcus sp. 'group A'; assay: Streptococcus pyogenes SK(-)GAS viability under kanamycin – luminescence, BacTiterGlo, confirmation, counter-screen for streptokinase expression inhibitor project, dose response (AID 1900); assay type: functional, organism-based
[14] = target: T4, Probable nicotinate-nucleotide adenylyltransferase (Staphylococcus aureus (strain N315), UniProt P65502); assay type: functional, Staphylococcus aureus subsp. aureus N315; conditions: read-out: IC50_Mean;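 on IC50 Mean: confirmatory dose-response retesting of NadD inhibitor hits first found in an ultra-high-throughput screen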
T4 sequence (P65502 whole entry): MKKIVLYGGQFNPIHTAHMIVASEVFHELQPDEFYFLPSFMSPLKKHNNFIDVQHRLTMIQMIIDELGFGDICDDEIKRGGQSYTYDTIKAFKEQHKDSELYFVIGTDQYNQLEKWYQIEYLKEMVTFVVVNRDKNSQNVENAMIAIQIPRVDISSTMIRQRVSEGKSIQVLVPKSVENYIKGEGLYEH

[15] = target: T5, Exodeoxyribonuclease V (Escherichia coli (strain K12), UniProt P04993+P07648+P08394); assay: RecBCD inhibition via phage-restricted bacterial growth – absorbance, V66 E. coli, mutant T4 phage, counter-screen for AddAB inhibitor project, dose response (AID 492957); assay type: functional, cell-based, Escherichia coli str. K-12 substr. MG1655
T5 sequence (P04993 whole entry): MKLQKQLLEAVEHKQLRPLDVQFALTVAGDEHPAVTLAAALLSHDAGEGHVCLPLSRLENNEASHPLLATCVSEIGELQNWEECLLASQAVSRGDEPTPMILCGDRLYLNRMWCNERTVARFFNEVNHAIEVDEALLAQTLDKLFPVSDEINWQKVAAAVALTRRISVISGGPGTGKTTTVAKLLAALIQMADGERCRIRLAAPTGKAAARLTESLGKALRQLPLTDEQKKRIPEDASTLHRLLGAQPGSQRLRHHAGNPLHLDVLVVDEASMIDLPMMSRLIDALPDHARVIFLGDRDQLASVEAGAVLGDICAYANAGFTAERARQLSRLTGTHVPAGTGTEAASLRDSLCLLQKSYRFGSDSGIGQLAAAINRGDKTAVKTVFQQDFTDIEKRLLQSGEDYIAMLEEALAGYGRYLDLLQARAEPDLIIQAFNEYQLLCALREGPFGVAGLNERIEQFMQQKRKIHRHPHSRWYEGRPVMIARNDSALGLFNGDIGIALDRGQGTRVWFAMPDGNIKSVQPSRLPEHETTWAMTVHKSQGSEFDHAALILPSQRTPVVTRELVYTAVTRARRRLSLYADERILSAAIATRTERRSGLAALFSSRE
T5 sequence (P07648 whole entry): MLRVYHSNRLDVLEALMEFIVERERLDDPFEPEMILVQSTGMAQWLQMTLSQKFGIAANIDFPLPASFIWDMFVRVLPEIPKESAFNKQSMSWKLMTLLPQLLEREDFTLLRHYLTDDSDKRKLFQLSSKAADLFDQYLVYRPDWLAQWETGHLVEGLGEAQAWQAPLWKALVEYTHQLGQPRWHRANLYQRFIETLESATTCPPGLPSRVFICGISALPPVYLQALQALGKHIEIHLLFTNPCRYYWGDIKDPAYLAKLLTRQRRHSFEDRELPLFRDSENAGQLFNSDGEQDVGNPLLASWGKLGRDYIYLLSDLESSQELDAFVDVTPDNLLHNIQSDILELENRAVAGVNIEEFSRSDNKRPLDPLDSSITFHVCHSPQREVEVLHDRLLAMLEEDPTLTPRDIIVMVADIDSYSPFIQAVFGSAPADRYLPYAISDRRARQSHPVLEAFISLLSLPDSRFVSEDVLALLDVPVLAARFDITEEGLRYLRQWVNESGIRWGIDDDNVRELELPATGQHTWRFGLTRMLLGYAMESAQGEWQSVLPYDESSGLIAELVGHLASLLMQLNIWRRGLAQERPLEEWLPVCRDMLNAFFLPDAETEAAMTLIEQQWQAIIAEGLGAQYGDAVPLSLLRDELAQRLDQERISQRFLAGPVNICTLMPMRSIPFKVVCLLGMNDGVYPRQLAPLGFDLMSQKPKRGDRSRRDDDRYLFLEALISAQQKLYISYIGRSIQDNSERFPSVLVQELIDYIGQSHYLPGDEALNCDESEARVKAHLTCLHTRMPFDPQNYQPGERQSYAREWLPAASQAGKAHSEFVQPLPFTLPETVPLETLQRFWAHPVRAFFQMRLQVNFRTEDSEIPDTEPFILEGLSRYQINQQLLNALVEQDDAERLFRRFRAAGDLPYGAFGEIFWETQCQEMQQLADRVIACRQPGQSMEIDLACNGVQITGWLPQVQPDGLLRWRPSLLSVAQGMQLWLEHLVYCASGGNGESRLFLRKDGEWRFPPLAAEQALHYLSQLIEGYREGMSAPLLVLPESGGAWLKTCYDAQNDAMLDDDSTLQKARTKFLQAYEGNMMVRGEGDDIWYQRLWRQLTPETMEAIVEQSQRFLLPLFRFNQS
T5 sequence (P08394 whole entry): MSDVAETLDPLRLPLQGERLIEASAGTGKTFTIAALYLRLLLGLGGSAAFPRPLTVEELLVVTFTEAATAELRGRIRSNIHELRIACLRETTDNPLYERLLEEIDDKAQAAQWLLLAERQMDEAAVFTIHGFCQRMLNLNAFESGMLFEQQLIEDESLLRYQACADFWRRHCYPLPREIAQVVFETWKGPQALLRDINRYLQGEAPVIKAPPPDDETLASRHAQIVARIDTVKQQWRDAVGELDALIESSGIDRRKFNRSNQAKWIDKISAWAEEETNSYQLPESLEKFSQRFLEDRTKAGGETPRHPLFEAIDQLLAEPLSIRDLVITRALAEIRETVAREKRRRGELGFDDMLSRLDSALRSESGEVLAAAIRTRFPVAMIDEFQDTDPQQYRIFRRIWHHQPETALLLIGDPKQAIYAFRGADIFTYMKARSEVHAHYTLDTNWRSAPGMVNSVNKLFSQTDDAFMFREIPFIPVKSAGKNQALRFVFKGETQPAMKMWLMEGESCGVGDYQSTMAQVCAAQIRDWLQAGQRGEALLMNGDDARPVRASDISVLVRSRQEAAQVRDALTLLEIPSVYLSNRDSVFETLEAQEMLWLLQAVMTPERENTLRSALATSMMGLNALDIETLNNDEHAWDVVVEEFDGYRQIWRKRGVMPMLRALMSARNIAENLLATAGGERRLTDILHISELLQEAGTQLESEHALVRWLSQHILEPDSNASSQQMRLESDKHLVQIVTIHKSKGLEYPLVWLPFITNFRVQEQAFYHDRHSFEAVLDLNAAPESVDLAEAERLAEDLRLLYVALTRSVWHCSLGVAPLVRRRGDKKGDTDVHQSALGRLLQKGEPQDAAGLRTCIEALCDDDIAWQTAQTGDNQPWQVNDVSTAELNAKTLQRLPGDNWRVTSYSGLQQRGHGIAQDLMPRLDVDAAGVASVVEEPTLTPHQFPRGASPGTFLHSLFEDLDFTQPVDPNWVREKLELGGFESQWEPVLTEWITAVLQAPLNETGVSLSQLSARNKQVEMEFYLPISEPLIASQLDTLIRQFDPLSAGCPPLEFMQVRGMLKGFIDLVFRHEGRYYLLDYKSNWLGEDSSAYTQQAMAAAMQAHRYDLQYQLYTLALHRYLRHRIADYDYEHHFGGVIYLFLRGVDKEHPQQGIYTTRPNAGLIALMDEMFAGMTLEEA

[16] = target: T4, Probable nicotinate-nucleotide adenylyltransferase; assay type: functional, Staphylococcus aureus subsp. aureus N315
[17] = target: Albumin (Bos taurus, UniProt P02769); assay: Counterscreen for inhibitors of T-cell receptor (TCR)-CD3 interaction: Fluorescence-based biochemical high throughput dose response assay to identify inhibitors of T-cell receptor (TCR)-CD3 interaction using a TAMRA-labeled BSA probe.; assay type: functional
Chain of Albumin (P02769 whole entry): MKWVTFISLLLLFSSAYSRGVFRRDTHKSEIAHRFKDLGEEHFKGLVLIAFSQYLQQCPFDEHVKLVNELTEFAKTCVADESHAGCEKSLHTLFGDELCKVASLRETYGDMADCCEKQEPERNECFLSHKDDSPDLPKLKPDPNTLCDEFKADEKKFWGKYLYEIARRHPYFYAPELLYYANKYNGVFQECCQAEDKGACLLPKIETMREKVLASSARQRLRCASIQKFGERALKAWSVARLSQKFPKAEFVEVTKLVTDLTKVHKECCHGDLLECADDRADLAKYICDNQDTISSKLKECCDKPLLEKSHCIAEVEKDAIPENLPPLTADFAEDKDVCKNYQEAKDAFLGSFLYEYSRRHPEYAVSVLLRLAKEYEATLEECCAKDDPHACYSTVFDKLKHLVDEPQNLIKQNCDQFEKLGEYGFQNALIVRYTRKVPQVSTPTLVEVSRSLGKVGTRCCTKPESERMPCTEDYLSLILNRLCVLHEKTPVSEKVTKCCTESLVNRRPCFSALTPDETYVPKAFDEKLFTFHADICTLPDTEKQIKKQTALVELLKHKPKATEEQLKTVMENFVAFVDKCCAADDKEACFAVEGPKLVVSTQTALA

[18] = target: Protein Wnt-3a (Mus musculus, UniProt P27467); assay: SAR analysis of small molecule antagonists of Gli-SUFU in a Wnt3a luminescent reporter assay.; assay type: functional
Chain of Protein Wnt-3a (P27467 whole entry): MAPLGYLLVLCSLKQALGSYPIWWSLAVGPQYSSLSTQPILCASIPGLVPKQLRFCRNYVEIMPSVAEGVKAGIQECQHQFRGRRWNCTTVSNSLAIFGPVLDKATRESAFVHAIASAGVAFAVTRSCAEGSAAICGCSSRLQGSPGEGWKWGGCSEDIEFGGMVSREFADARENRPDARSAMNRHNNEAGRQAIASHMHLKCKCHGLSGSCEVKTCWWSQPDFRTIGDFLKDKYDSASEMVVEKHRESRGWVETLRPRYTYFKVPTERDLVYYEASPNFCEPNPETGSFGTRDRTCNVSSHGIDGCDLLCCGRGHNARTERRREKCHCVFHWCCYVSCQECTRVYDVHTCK

[19] = TNFa-induced NF-kB reporter signal decrease – HEK293 LMP1 reporter cells, dry powder, set 2, selectivity assay for EBV LMP1 NF-kB inhibitor project, dose response (AID 624369); assay type: functional
[20] = cytotoxicity in HEK293 background cells – cell-based, dry powder, set 2, counter-screen for EBV LMP1 inhibitor project, dose response (AID 624374); assay type: functional

With `COc1cccc(S(=O)(=O)N2C[C@@H](O)COC[C@H]3O[C@H](CC(=O)Nc4ccccc4)CC[C@@H]32)c1` the AC50 [1] was > 52 µM (inactive).
For `CSCc1cc(C(=O)NC2CC2)c(N)s1`, the AC50 [2] was 17.5 µM (active).
For `CO[C@H]1CN(C)C(=O)c2ccc(NC(=O)Nc3ccc(Cl)c(Cl)c3)cc2OC[C@H](C)NC[C@H]1C`, the AC50 [3] was 13.5 µM (active).
In the case of `CN(C)c1ccc(C=c2c3ccccc3n3c2cc(-c2ccc(Cl)cc2)[n+]3C)cc1`, the IC50 [4] is reported as 44.9 µM (active), the CC50 [5] is reported as 18.9 µM (active) and the IC50 [6] is reported as 5.85 µM (active).
With `Cc1ccc(OCc2cc(C(=O)N(C)Cc3cnn(-c4ccccc4C)c3)no2)cn1` the EC50 [7] was 0.0555 µM (active) and the EC50 [8] was 0.305 µM (active).
With `COc1ccc2nc(NCCCNC(=O)c3cc(OC)c(OC)c(OC)c3)c(C#N)cc2c1` the IC50 [9] was 1.78 µM (active).
For `Cc1c(C(=O)NNC(=O)c2ccccc2O)oc2ccc(Br)cc12`, the EC50 [10] was > 150 µM (not active), the IC50 [11] was > 119 µM (inactive) and the EC50 [12] was 8.5 µM (active). For the same compound, the EC50 [13] was 8.43 µM (active), the IC50 [14] was 45.8 µM (active) and the IC50 [15] was > 119 µM (inactive). The IC50 [16] was 15.3 µM (active).
With `O=C(NNC(=O)C1CCN(S(=O)(=O)c2ccccc2C(F)(F)F)CC1)c1ccccc1O` the IC50 [11] was > 119 µM (inactive), the IC50 [17] was > 94.1 µM (inactive) and the IC50 [15] was > 119 µM (inactive).
In the case of `O=C(Nc1cc(N2CCCCC2)ncn1)c1ccco1`, the IC50 [18] is reported as > 21.8 µM (inactive).
Work on `COc1cccc(C#Cc2ccc([C@@H]3[C@@H](C#N)N(C(=O)c4ccccn4)[C@@H]3CO)cc2)c1` yielded an AbsAC35 [19] of 84.96 µM and an AbsAC35 [20] of 328.8 µM.
